Laboratory results as given in US9029337B2, “Modulation of factor 7 expression” (Isis Pharmaceuticals, Inc., priority 2007, dated 2015).
Strand notation (5' to 3'): a small letter for the sugar, then the base; units joined by * are phosphorothioate-linked, units joined directly phosphodiester-linked; [ ] holds rarer units or linkages, { } end groups; capitals alone tell only the bases. e = 2'-O-(2-methoxyethyl) (MOE); [5mC] = 5-methylcytosine; d = 2'-deoxy (DNA)

Tested on: human Factor 7 mRNA
Test: Antisense inhibition of human Factor 7 with short (14-mer) oligonucleotides in HepB3 cells, electroporation 1,000 nM
Type: cell-based
Settings: electroporation, 1,000 nM antisense oligonucleotide, approximately 24 hours, Factor 7 mRNA relative to untreated control cells
Source text: Short antisense oligonucleotides (shortmers) were designed to target a Factor 7 nucleic acid. The shortmers in Table 17 were designed as 2-10-2 MOE gapmers. The gapmers are 14 nucleotides in length, wherein the central gap segment is comprised of 10 2′-deoxynucleotides and is flanked on both sides (in the 5′ and 3′ directions) by wings comprising 2 nucleotides each. Each nucleotide in the 5′ wing segment and each nucleotide in the 3′ wing segment has a 2′-MOE modification. The internucleoside linkages throughout each gapmer are phosphorothioate (P═S) linkages. All cytidine residues throughout each gapmer are 5-methylcytidines.
Shortmers were evaluated for their ability to reduce human Factor 7 mRNA in HepB3 cells and compared with one 5-10-5 chimeric oligonucleotide from Table 16, ISIS 407939. HepB3 cells at a density of 20,000 cells per well in a 96-well plate were transfected using electroporation with 1,000 nM of antisense oligonucleotide. After a treatment period of approximately 24 hours, RNA was isolated from the cells and Factor 7 mRNA levels were measured by real-time RT-PCR, as described herein. Factor 7 mRNA levels were adjusted according to total RNA content as measured by RIBOGREEN®. Results are presented in Table 17 as percent inhibition of Factor 7 mRNA, relative to untreated control cells. ISIS 407939 is the first oligonucleotide in Table 17 to which the shortmers were compared, and is marked by an asterisk (*).

Substance	% Inhibition [%]
435503 (antisense eT*eG*dT*dA*d[5mC]*dT*dG*dG*dG*dA*dG*dA*e[5mC]*e[5mC]) [compound 435503]	17
435504 (antisense eA*eT*dG*dT*dA*d[5mC]*dT*dG*dG*dG*dA*dG*eA*e[5mC]) [compound 435504]	8
435634 (antisense eT*eG*dA*dA*dA*dT*d[5mC]*dT*d[5mC]*dT*dG*d[5mC]*eA*eG) [compound 435634]	5
435635 (antisense e[5mC]*eA*dT*dG*dA*dT*dG*dA*dA*dA*dT*d[5mC]*eT*e[5mC]) [compound 435635]	0
435636 (antisense eG*eA*dG*dA*d[5mC]*d[5mC]*dA*dT*dG*dA*dT*dG*eA*eA) [compound 435636]	13
435637 (antisense eT*eG*dA*dA*dG*d[5mC]*d[5mC]*d[5mC]*dA*dA*dG*d[5mC]*eA*eG) [compound 435637]	11
435638 (antisense eA*eG*d[5mC]*d[5mC]*d[5mC]*dT*dG*dA*dA*dG*d[5mC]*d[5mC]*e[5mC]*eA) [compound 435638]	55
435639 (antisense eT*e[5mC]*d[5mC]*dA*dG*dA*dA*d[5mC]*dA*dG*d[5mC]*dT*eT*e[5mC]) [compound 435639]	31
435640 (antisense eT*eG*dT*dA*dA*dG*dA*dA*dA*dT*d[5mC]*d[5mC]*eA*eG) [compound 435640]	2
435641 (antisense eG*eG*dT*d[5mC]*d[5mC]*d[5mC]*d[5mC]*dA*dT*d[5mC]*dA*d[5mC]*eT*eG) [compound 435641]	51
435642 (antisense eA*e[5mC]*dA*d[5mC]*dT*dG*dG*dT*d[5mC]*d[5mC]*d[5mC]*d[5mC]*eA*eT) [compound 435642]	60
435643 (antisense e[5mC]*eT*dT*dG*d[5mC]*dA*dG*dG*dA*dG*d[5mC]*d[5mC]*e[5mC]*e[5mC]) [compound 435643]	51
435644 (antisense eT*eG*dG*dT*d[5mC]*d[5mC]*dT*dT*dG*d[5mC]*dA*dG*eG*eA) [compound 435644]	30
435645 (antisense eG*eG*dA*dG*d[5mC]*dT*dG*dG*dT*d[5mC]*d[5mC]*dT*eT*eG) [compound 435645]	44
435646 (antisense eT*eA*dG*dG*dA*d[5mC]*dT*dG*dG*dA*dG*d[5mC]*eT*eG) [compound 435646]	13
435647 (antisense eA*eG*dA*dT*dA*dT*dA*dG*dG*dA*d[5mC]*dT*eG*eG) [compound 435647]	0
435648 (antisense eG*eA*dA*dG*d[5mC]*dA*dG*dA*dT*dA*dT*dA*eG*eG) [compound 435648]	0
435649 (antisense eA*eG*dG*d[5mC]*dA*dG*dA*dA*dG*d[5mC]*dA*dG*eA*eT) [compound 435649]	21
435650 (antisense e[5mC]*e[5mC]*dG*dG*d[5mC]*d[5mC]*d[5mC]*dT*d[5mC]*dG*dA*dA*eG*eG) [compound 435650]	6
435651 (antisense eA*e[5mC]*dA*dG*dT*dT*d[5mC]*d[5mC]*dG*dG*d[5mC]*d[5mC]*e[5mC]*eT) [compound 435651]	71
435652 (antisense e[5mC]*eT*dG*dG*dT*d[5mC]*dA*dT*d[5mC]*d[5mC]*dT*dT*eG*eT) [compound 435652]	48
435653 (antisense eA*eT*d[5mC]*dA*dG*d[5mC]*dT*dG*dG*dT*d[5mC]*dA*eT*e[5mC]) [compound 435653]	32
435654 (antisense eG*e[5mC]*d[5mC]*dG*dT*dT*d[5mC]*dT*d[5mC]*dG*dT*dT*e[5mC]*eA) [compound 435654]	71
435655 (antisense eA*e[5mC]*dA*dG*d[5mC]*d[5mC]*dG*d[5mC]*d[5mC]*dG*dT*dT*e[5mC]*eT) [compound 435655]	49
435656 (antisense eA*e[5mC]*dT*dG*d[5mC]*dT*d[5mC]*dA*d[5mC]*dA*dG*d[5mC]*e[5mC]*eG) [compound 435656]	58
435657 (antisense eG*e[5mC]*dA*dG*dT*dA*d[5mC]*dT*dG*d[5mC]*dT*d[5mC]*eA*e[5mC]) [compound 435657]	69
435658 (antisense eT*e[5mC]*dA*d[5mC]*dT*dG*d[5mC]*dA*dG*dT*dA*d[5mC]*eT*eG) [compound 435658]	60

Substance	% Inhibition [%]
435659 (antisense eT*eA*d[5mC]*d[5mC]*d[5mC]*d[5mC]*dT*d[5mC]*dG*dT*dG*dG*e[5mC]*eA) [compound 435659]	18
435660 (antisense e[5mC]*e[5mC]*dG*dT*d[5mC]*dT*dG*d[5mC]*d[5mC]*dA*dG*d[5mC]*eA*eG) [compound 435660]	58
435661 (antisense eG*eG*dA*d[5mC]*dA*d[5mC]*d[5mC]*d[5mC]*d[5mC]*dG*dT*d[5mC]*eT*eG) [compound 435661]	18
435662 (antisense eT*eG*dG*dA*dT*dA*dT*dT*d[5mC]*dA*dA*d[5mC]*eT*eG) [compound 435662]	19
435663 (antisense e[5mC]*e[5mC]*dA*d[5mC]*dA*dT*dG*dG*dA*dT*dA*dT*eT*e[5mC]) [compound 435663]	50
435664 (antisense eT*eT*dT*dT*dT*d[5mC]*d[5mC]*dA*d[5mC]*dA*dT*dG*eG*eA) [compound 435664]	4
435665 (antisense eA*eG*dG*dT*dA*dT*dT*dT*dT*dT*d[5mC]*d[5mC]*eA*e[5mC]) [compound 435665]	0
435666 (antisense eG*eG*dT*dT*dT*dG*d[5mC]*dT*dG*dG*d[5mC]*dA*eT*eT) [compound 435666]	71
435667 (antisense eA*eA*dT*dT*d[5mC]*dG*dG*d[5mC]*d[5mC]*dT*dT*dG*eG*eG) [compound 435667]	16
435668 (antisense eT*eG*d[5mC]*d[5mC]*dA*dT*dG*dG*dA*d[5mC]*dA*d[5mC]*eT*e[5mC]) [compound 435668]	75
435669 (antisense eG*eG*dA*d[5mC]*d[5mC]*dT*dG*d[5mC]*d[5mC]*dA*dT*dG*eG*eA) [compound 435669]	36
435670 (antisense e[5mC]*eA*dA*d[5mC]*dA*dG*dG*dA*d[5mC]*d[5mC]*dT*dG*e[5mC]*e[5mC]) [compound 435670]	47
435671 (antisense eT*e[5mC]*dA*d[5mC]*d[5mC]*dA*dA*d[5mC]*dA*dA*d[5mC]*dA*eG*eG) [compound 435671]	28
435672 (antisense eA*e[5mC]*d[5mC]*d[5mC]*dA*dG*dA*dT*dG*dG*dT*dG*eT*eT) [compound 435672]	12
435673 (antisense eA*eG*dA*d[5mC]*d[5mC]*dA*d[5mC]*d[5mC]*d[5mC]*dA*dG*dA*eT*eG) [compound 435673]	34
435674 (antisense eA*eA*dA*d[5mC]*dA*dG*dT*dG*dG*dG*d[5mC]*d[5mC]*eG*e[5mC]) [compound 435674]	34
435675 (antisense eT*eG*dT*d[5mC]*dG*dA*dA*dA*d[5mC]*dA*dG*dT*eG*eG) [compound 435675]	24
435676 (antisense eG*eA*dT*dT*dT*dT*dG*dT*d[5mC]*dG*dA*dA*eA*e[5mC]) [compound 435676]	11
435677 (antisense eG*eT*dG*d[5mC]*dT*d[5mC]*dG*d[5mC]*d[5mC]*d[5mC]*dA*dG*e[5mC]*eA) [compound 435677]	60
435678 (antisense eA*eG*dG*dT*d[5mC]*dG*dT*dG*d[5mC]*dT*d[5mC]*dG*e[5mC]*e[5mC]) [compound 435678]	67
435679 (antisense e[5mC]*eG*d[5mC]*dT*dG*dA*dG*dG*dT*d[5mC]*dG*dT*eG*e[5mC]) [compound 435679]	62
435680 (antisense eG*eT*dG*d[5mC]*dT*d[5mC]*dG*d[5mC]*dT*dG*dA*dG*eG*eT) [compound 435680]	52
435681 (antisense eA*eT*dG*dA*d[5mC]*d[5mC]*dT*dG*d[5mC]*dG*d[5mC]*d[5mC]*eA*e[5mC]) [compound 435681]	40
435682 (antisense eG*eG*dA*dT*dG*dA*dT*dG*dA*d[5mC]*d[5mC]*dT*eG*e[5mC]) [compound 435682]	36
435683 (antisense eA*eT*dG*dT*d[5mC]*dG*dT*dG*dG*dT*dT*dG*eG*eT) [compound 435683]	3
435684 (antisense eA*eG*d[5mC]*dA*dG*d[5mC]*dG*d[5mC]*dG*dA*dT*dG*eT*e[5mC]) [compound 435684]	56
435685 (antisense eA*eG*dG*dA*d[5mC]*d[5mC]*dA*d[5mC]*dG*dG*dG*d[5mC]*eT*eG) [compound 435685]	40
